This is an account of results in patent US20070173463A1, “Method and composition for treating otitis media” (priority 2006, published 2007).

The conditions of data set [1]: prophylactic drops; cited from earlier work.
The conditions of data set [2]: topical use in the ear; cited from earlier work.
For another data set, the system named is ear. The settings on record: guinea pigs; cited from earlier work.
Data set [3] relates to inner ear hearing function. Nature of the data set: Application to the round window membrane with monitoring of compound action potential (CAP). The settings on record: 0.05 to 1.0% applied directly to the round window membrane, more than 50 animals. Type of data set: in vivo, guinea pigs. The source says:
The inventor conducted animal studies involving application of alpha agonists, including phenylphrine (and other similar agents) directly in the middle ear space of guinea pigs. In these studies, phenylephrine at a concentration of 0.05 to 1.0% was applied directly to the round window membrane of the animal. […] The monitoring of CAP was not specifically reported in published reports, but rather was monitored on a routine basis as a part of the experimental setup. […] See also Isaacson G et al., Oxymetazoline solutions inhibit middle ear pathogens and are not ototoxic.

For data set [4] the following is noted: topical; cited from earlier work.

Consider `O=C(O)c1cn(C2CC2)c2cc(N3CCNCC3)c(F)cc2c1=O` [ciprofloxacin], for which the “prevention of post-operative ear drainage after tube insertion” value in data set [1] is “effective at preventing post-operative ear drainage after tube insertion”. For `CC1COc2c(N3CCN(C)CC3)c(F)cc3c(=O)c(C(=O)O)cn1c23` (stereo not drawn) [ofloxacin], the “toxicity for the inner ear (ototoxicity)” value in data set [2] was “demonstrated lack of toxicity for the inner ear”. Turning to `Cc1cc(C(C)(C)C)c(O)c(C)c1CC1=NCCN1` [oxymetazoline], the “toxicity to the ear” value in the data set on ear was “non-toxic to the ear”.

As to `CNC[C@H](O)c1cccc(O)c1` [phenylephrine], the “compound action potential (CAP), a measure of inner ear hearing function” value in data set [3] was “not found to be adversely affected”.

For `NC[C@H]1O[C@H](O[C@H]2[C@H](O)[C@@H](O[C@H]3O[C@H](CO)[C@@H](O)[C@H](N)[C@H]3O)[C@H](N)C[C@@H]2N)[C@H](N)C[C@@H]1O` [tobramycin], the “toxicity for the inner ear (ototoxicity)” value in data set [2] is on record as “scattered reports of ototoxicity”. Besides, the “effectiveness in treating middle ear infections” value (“effectiveness” below) in data set [4] is “effective in treating middle ear infections topically”. In the case of Gentamycin, in data set [2], the “toxicity for the inner ear (ototoxicity)” value was “scattered reports of ototoxicity”. For the same compound, in data set [4], the “effectiveness” value is given as “effective in treating middle ear infections topically”. With neomycin, in data set [4], the “effectiveness” value is reported as “effective in treating middle ear infections topically”.
